# From patent US20050187188A1, “Methods for the treatment of a traumatic central nervous system injury” (Emory University, priority 2000, published 2005)
# Entries after “also recorded” stand apart in the source; their conditions may differ.
# Columns and labels:
# [1] = tested on: rats with medial frontal cortical contusions; test: Cerebral edema (brain tissue water content) after medial frontal cortex contusion, Example 1; assay type: in vivo, rat; conditions: 4 mg/kg in cyclodextrin, i.p. 1 h and s.c. 6 h post-injury; 2, 24 and 72 hours; compared to vehicle
# Experimental: Contusions to the medical frontal cortex (MFC) using a pneumatic impactor device were generated. Animals were anesthetized by injection of Nembutal (50 mg/kg, i.p) and placed in a stereotaxic apparatus, with body core temperature being maintained with a homeothermic heating blanket system. Using aseptic techniques, a midline incision was made in the scalp, and the fascia retracted to expose the cranium. A centered, bilateral craniotomy was made 3 mm anterior to bregma using a 6 mm diameter trephan. After the removal of the bone, the tip of the impactor was moved to AP:3.0; ML:0.0, checked for adequate clearance, retracted to its elevated position and lowered 3.5 mm DV, so it penetrated the cortex 2 mm. The contusion was made at a velocity of 2.25 m/s with a brain contact time of 0.5 seconds. Following this procedure, the wound cavity was thoroughly cleaned and all bleeding stopped before the fascia and scalp, were sutured closed. In all experiments, the rats' group identity was coded with regard to surgery and treatment to prevent experimenter bias during behavioral testing and later histological examination.
# These experimental solutions were then diluted 1:1 with sterile water for a final concentration of HBC of 22.5%.
# Sprague-Dawley male rats, approximately 90 days of age at the time of surgery, were used. Rats were housed in individual cages, with a 12:12 light:dark cycle. Food and water were provided ad libitum throughout the experiment. Control rats received sham surgeries and the rest received medial frontal cortical contusions as described in the general methods. The sham-operated controls were given vehicle (cyclodextrin). […] Treatment began one hour after the contusion was produced. […] Subsequently, a second subcutaneous injection 6 hours post-injury for absorption that is more gradual. […]
# At 2, 24, and 72 hours the rats were anesthetized, decapitated, and their brains removed quickly from the cranial cavity. […] The brain was placed on a pre-weighed dish and the total weight of the sample was measured. […]
# sigma receptor = conditions: cited from earlier work
# GABA receptor = conditions: independent of the benzodiazepines; cited from earlier work
# [2] = tested on: rats with bilateral frontal cortical contusions; test: Morris water maze after MFC contusion, Example 2; assay type: in vivo, rat; conditions: 4 mg/kg
# Experimental: Contusions to the MFC were carried out as described in Example 1.
# (§1) These injections started at one hour post-injury with an intraperitoneal injection, and then were repeated at 6, 24, 48, 72, 96, and 120 hours post-injury with subcutaneous injections.
# The Morris Water Maize (MWM) consisted of a circular tank with a diameter of 133 cm filled with opaque water (20±1° C.; non-toxic Artista™ nontoxic white tempura paint) to a depth of 64 cm (23 cm from top of tank). A platform (11 cm×11 cm) was submerged to a depth of 2 cm and placed approximately 28 cm from the wall of the pool in the center of the northeast quadrant. The position of the platform will remain constant throughout the experiment. MWM testing began seven days after surgery. Each animal was tested for a total of 10 days (2 trials per day) in two 5-day blocks. At the start of each trial, the experimenter placed a rat into the pool at one of four starting positions, and at the same time, activate the computer-interfaced camera tracking system. Each rat was allowed to swim in the pool until it reached the platform or until 90 seconds has passed. […] The performance of each rat was measured in terms of latency to platform, length of path to platform, and swim strategy, i.e., percent of total time spent in the outer versus inner annuli.
# cell death = conditions: by attenuating release of inflammatory cytokines; cited from earlier work
# [3] = tested on: rats with bilateral frontal cortical contusions; test: Histological count of ChAT positive cells in nucleus basalis magnocellularis, motor behavior and cavity size, Example 2; assay type: in vivo, rat; conditions: 4 mg/kg
# Experimental: A single asterisk (*) indicates a significant difference from sham, a double asterisk (**) indicates a significant difference from both sham and lesion controls.
# as §1
# To determine the relationship between neural cell numbers and behavior, the number of neurons and glia were counted to determine the correlative relationship between the survival of these cells and behavioral performance (FIG. 3).
SMILES,cerebral edema [1],activity at the sigma receptor (sigma receptor),modulation of the GABA receptor (GABA receptor),"Morris water maze performance vs injured rats given vehicle ([2]; injections from 1 h to 120 h post-injury, last three blocks of testing, p<0.05)",performance scores on the spatial learning task vs other groups ([2]; all days of testing),cell death in vitro (cell death),necrotic cavity size [3],spontaneous motor behavior [3],number of ChAT positive cells in the nucleus basalis magnocellularis ([3]; vs untreated controls)
CC(=O)[C@H]1CC[C@H]2[C@@H]3CC[C@@H]4C[C@@H](O)CC[C@]4(C)[C@H]3CC[C@]12C [epipregnanolone],intermediate between injured controls and the allopregnanolone-treated injured rats,antagonists at the sigma receptor,positive modulators of the GABA receptor,–,–,–,–,–,–
"CC(=O)[C@H]1CC[C@H]2[C@@H]3CC[C@H]4C[C@H](O)CC[C@]4(C)[C@H]3CC[C@]12C [allopregnanolone, allopregnan-3α, or 3β-ol-20-one]",significantly reduced cerebral edema,antagonists at the sigma receptor,positive modulators of the GABA receptor,improved performance on an acquisition task; also recorded: significantly outperformed the injured rats given vehicle,better performance scores on the spatial learning task than the other groups,prevent cell death in vitro,no differences,no differences,more remaining viable neurons in this structure than untreated controls
